The test system of the test is HEK293-STF3A cells. The test can be described thus: STF3A assay (STF luciferase reporter in Wnt3A-expressing HEK293 cells). In kind it is cell-based. The note with it: Homo sapiens, 24 h, 1 day of treatment. The source says: HEK293-STF cell line was modified from Human embryonic kidney cell line HEK293 transfected with the STF reporter. HEK293-STF3A cell line was further modified from HEK293-STF cell line to express Wnt3A. This cell line was used to identify compounds that regulate either early or late signaling components of the Wnt pathway. These two cell lines were obtained from David Virshup's laboratory, Duke-NUS. L-Wnt3A (ATCC, #CRL-2647) cell line was used for providing Wnt3A conditioned media. The three cell lines were grown in DMEM with 10% FBS incubated in 37° C. with 5% CO2.
2×10^4 HEK293-STF3A cells in 75 μl culture media were seeded in each well of white 96 well plates (Greiner #655098) and incubated overnight at 37° C. 25 μl serially diluted compound was added to the cells to give final concentration of 50 μM to 1.5 nM. After 1 day of treatment, 100 μl of Steady-Glo Luciferase Assay reagent (#E2520, Promega) was added to each well and incubated for 10 minutes at room temperature. Luminescence was measured using Tecan Safire2 plate reader.
A general note: A reporter such as luciferase makes a cellular process visible.

A value given as a limit tells only on which side of the number the result lay.

Turning to `CN1C(=O)C2=C(C1=O)N(CC(=O)Nc1ccc(-c3ccccc3)cc1)CCC2` [Compound 70, N-([1,1′-biphenyl]-4-yl)-2-(6-methyl-5,7-dioxo-2,3,4,5,6,7-hexahydro-1H-pyrrolo[3,4-b]pyridin-1-yl)acetamide], the IC50 is under 0.1 µM.

For `Cc1ccc(-c2ccc(NC(=O)CN3CCCC4=C3C(=O)N(C)C4=O)nn2)cc1` [Compound 30, 2-(6-methyl-5,7-dioxo-2,3,4,5,6,7-hexahydro-1H-pyrrolo[3,4-b]pyridin-1-yl)-N-(6-(p-tolyl)pyridazin-3-yl)acetamide], the IC50 is under 0.1 µM.

Consider `COc1cc(-c2ccccc2)ccc1NC(=O)CN1CCCC2=C1C(=O)N(C)C2=O` [Compound 81, N-(3-methoxy-[1,1′-biphenyl]-4-yl)-2-(6-methyl-5,7-dioxo-2,3,4,5,6,7-hexahydro-1H-pyrrolo[3,4-b]pyridin-1-yl)acetamide], for which the concentration for half-maximal inhibition (IC50) is over 10 µM.

Turning to `COc1ccccc1-c1ccc(NC(=O)CN2CCCC3=C2C(=O)N(C)C3=O)nn1` [Compound 28, N-(6-(2-methoxyphenyl)pyridazin-3-yl)-2-(6-methyl-5,7-dioxo-2,3,4,5,6,7-hexahydro-1H-pyrrolo[3,4-b]pyridin-1-yl)acetamide], the half-maximal inhibitory concentration (IC50) is over 10 µM.

On to `CN1C(=O)C2=C(C1=O)N(CC(=O)Nc1ccc(-c3cncc(C(F)(F)F)c3)nn1)CCC2` [Compound 48, 2-(6-methyl-5,7-dioxo-2,3,4,5,6,7-hexahydro-1H-pyrrolo[3,4-b]pyridin-1-yl)-N-(6-(5-(trifluoromethyl)pyridin-3-yl)pyridazin-3-yl)acetamide], for which the IC50 was under 0.1 µM.

Regarding `CN1C(=O)C2=C(C1=O)N(CC(=O)Nc1ccc(-c3ccncn3)cc1)CCC2` [Compound 73, 2-(6-methyl-5,7-dioxo-2,3,4,5,6,7-hexahydro-1H-pyrrolo[3,4-b]pyridin-1-yl)-N-(4-(pyrimidin-4-yl)phenyl)acetamide], the IC50 was over 10 µM.

As for `Cc1ccc(-c2cnc(NC(=O)CN3CCCC4=C3C(=O)N(C)C4=O)cn2)cn1` [Compound 35], the half-inhibitory concentration (IC50) was under 1 µM.

On to `Cc1nc(-c2ccc(NC(=O)CN3CCCC4=C3C(=O)N(C3CC3)C4=O)nc2)cs1` [Compound 15, 2-(6-cyclopropyl-5,7-dioxo-2,3,4,5,6,7-hexahydro-1H-pyrrolo[3,4-b]pyridin-1-yl)-N-(5-(2-methylthiazol-4-yl)pyridin-2-yl)acetamide], for which the half-maximal inhibitory concentration (IC50) was under 0.1 µM.

On to `Cc1cncc(-c2ccc(NC(=O)CN3CCCC4=C3C(=O)N(C)C4=O)cn2)c1` [Compound 149, 2-(6-methyl-5,7-dioxo-2,3,4,5,6,7-hexahydro-1H-pyrrolo[3,4-b]pyridin-1-yl)-N-(5′-methyl-[2,3′-bipyridin]-5-yl)acetamide], for which the half-maximal inhibitory concentration (IC50) was under 0.1 µM.

Consider `O=C(CN1CCCC2=C1C(=O)N(C1CC1)C2=O)Nc1ccc(-c2cncnc2)cc1` [Compound 90, 2-(6-cyclopropyl-5,7-dioxo-2,3,4,5,6,7-hexahydro-1H-pyrrolo[3,4-b]pyridin-1-yl)-N-(4-(pyrimidin-5-yl)phenyl)acetamide], for which the half-maximal inhibitory concentration (IC50) was under 0.1 µM.

`C[C@H](C(=O)Nc1ccc(-c2ccccc2)nn1)N1CCCC2=C1C(=O)N(C)C2=O` (single isomer, unassigned) [Compound 95] came in with a concentration for half-maximal inhibition (IC50) of over 10 µM.

Compound `CN1C(=O)C2=C(C1=O)N(CC(=O)Nc1ccc(-c3ccncc3)cn1)CCC2` [Compound 88, N-([3,4′-bipyridin]-6-yl)-2-(6-methyl-5,7-dioxo-2,3,4,5,6,7-hexahydro-1H-pyrrolo[3,4-b]pyridin-1-yl)acetamide] came in with a 50% inhibitory concentration (IC50) of under 1 µM.

With `CC(C(=O)Nc1ccc(-c2cccnc2)nn1)N1CCCC2=C1C(=O)N(C)C2=O` (stereo not shown) [Compound 60, 2-(6-methyl-5,7-dioxo-2,3,4,5,6,7-hexahydro-1H-pyrrolo[3,4-b]pyridin-1-yl)-N-(6-(pyridin-3-yl)pyridazin-3-yl)propanamide], the IC50 is under 0.1 µM.

`COc1cncc(-c2ccc(NC(=O)CN3CCCC4=C3C(=O)N(C3CC3)C4=O)nc2)c1` [Compound 147, 2-(6-cyclopropyl-5,7-dioxo-2,3,4,5,6,7-hexahydro-1H-pyrrolo[3,4-b]pyridin-1-yl)-N-(5′-methoxy-3,3′-bipyridin-6-yl)acetamide] gave a half-maximal inhibitory concentration (IC50) of under 0.1 µM.

For `CN1C(=O)C2=C(C1=O)N(CC(=O)Nc1ccc(-c3ccncc3)cc1)CCC2` [Compound 79, 2-(6-methyl-5,7-dioxo-2,3,4,5,6,7-hexahydro-1H-pyrrolo[3,4-b]pyridin-1-yl)-N-(4-(pyridin-4-yl)phenyl)acetamide], the concentration for half-maximal inhibition (IC50) is under 0.1 µM.

As for `CN1C(=O)C2=C(C1=O)N(CC(=O)Nc1ccc(-c3ccc(C(F)(F)F)cc3)nn1)CCC2` [Compound 49, 2-(6-methyl-5,7-dioxo-2,3,4,5,6,7-hexahydro-1H-pyrrolo[3,4-b]pyridin-1-yl)-N-(6-(4-(trifluoromethyl)phenyl)pyridazin-3-yl)acetamide], the half-maximal inhibitory concentration (IC50) is under 10 µM.

`CN1C(=O)C2=C(C1=O)N(CC(=O)Nc1ccc(-c3cccnc3)nn1)CCC2` [Compound 25, 2-(6-methyl-5,7-dioxo-2,3,4,5,6,7-hexahydro-1H-pyrrolo[3,4-b]pyridin-1-yl)-N-(6-(pyridin-3-yl)pyridazin-3-yl)acetamide] came in with a 50% inhibitory concentration (IC50) of under 0.1 µM.

`CN1C(=O)C2=C(C1=O)N(CC(=O)Nc1ccc(-c3ccccc3)cc1F)CCC2` [Compound 83, N-(3-fluorobiphenyl-4-yl)-2-(6-methyl-5,7-dioxo-2,3,4,5,6,7-hexahydro-1H-pyrrolo[3,4-b]pyridin-1-yl)acetamide] yielded an IC50 of under 0.1 µM.

With `CC(C(=O)Nc1ccc(-c2ccccn2)cn1)N1CCCC2=C1C(=O)N(C)C2=O` (stereo not shown) [Compound 17, N-([2,3′-bipyridin]-6′-yl)-2-(6-methyl-5,7-dioxo-2,3,4,5,6,7-hexahydro-1H-pyrrolo[3,4-b]pyridin-1-yl)propanamide], the IC50 is under 0.1 µM.

In turn, `CN1C(=O)C2=C(C1=O)N(CC(=O)Nc1ccc(-c3cccc(C(F)(F)F)c3)nn1)CCC2` [Compound 50, 2-(6-methyl-5,7-dioxo-2,3,4,5,6,7-hexahydro-1H-pyrrolo[3,4-b]pyridin-1-yl)-N-(6-(3-(trifluoromethyl)phenyl)pyridazin-3-yl)acetamide] gave an IC50 of under 0.1 µM.

Consider `O=C(CN1CCCC2=C1C(=O)N(C1CC1)C2=O)Nc1ccc(-c2cccnc2)nc1` [Compound 59, N-(2,3′-bipyridin-5-yl)-2-(6-cyclopropyl-5,7-dioxo-2,3,4,5,6,7-hexahydro-1H-pyrrolo[3,4-b]pyridin-1-yl)acetamide], for which the 50% inhibitory concentration (IC50) is under 0.1 µM.

As for `CN1C(=O)C2=C(C1=O)N(CC(=O)Nc1ccc(-c3ccc(F)nc3)nc1)CCC2` [Compound 108, N-(6′-fluoro-[2,3′-bipyridin]-5-yl)-2-(6-methyl-5,7-dioxo-2,3,4,5,6,7-hexahydro-1H-pyrrolo[3,4-b]pyridin-1-yl)acetamide], the 50% inhibitory concentration (IC50) is under 1 µM.

Turning to `CN1C(=O)C2=C(C1=O)N(CC(=O)Nc1ccc(-c3ccncc3)nc1)CCC2` [Compound 122, N-(2,4′-bipyridin-5-yl)-2-(6-methyl-5,7-dioxo-2,3,4,5,6,7-hexahydro-1H-pyrrolo[3,4-b]pyridin-1-yl)acetamide], the IC50 was under 1 µM.

In turn, `O=C(CN1CCCC2=C1C(=O)N(C1CC1)C2=O)Nc1ncc(-c2cccnc2)cc1F` [Compound 107, 2-(6-cyclopropyl-5,7-dioxo-2,3,4,5,6,7-hexahydro-1H-pyrrolo[3,4-b]pyridin-1-yl)-N-(5-fluoro-[3,3′-bipyridin]-6-yl)acetamide] showed a half-maximal inhibitory concentration (IC50) of under 1 µM.

On to `O=C(CN1CCCC2=C1C(=O)N(C1CC1)C2=O)Nc1ccc(-c2cccnc2)nc1F` [Compound 137], for which the 50% inhibitory concentration (IC50) is under 0.1 µM.

For the compound `Cc1cncc(-c2ccc(NC(=O)CN3CCCC4=C3C(=O)N(C3CC3)C4=O)nn2)c1` [Compound 53, 2-(6-cyclopropyl-5,7-dioxo-2,3,4,5,6,7-hexahydro-1H-pyrrolo[3,4-b]pyridin-1-yl)-N-(6-(5-methylpyridin-3-yl)pyridazin-3-yl)acetamide], the IC50 is under 0.1 µM.

Compound `CN1C(=O)C2=C(C1=O)N(CC(=O)Nc1ccc(-c3cncc(F)c3)nn1)CCC2` [Compound 72, N-(6-(5-fluoropyridin-3-yl)pyridazin-3-yl)-2-(6-methyl-5,7-dioxo-2,3,4,5,6,7-hexahydro-1H-pyrrolo[3,4-b]pyridin-1-yl)acetamide] displayed an IC50 of under 0.1 µM.

`CC(C(=O)Nc1cnc(-c2ccccc2)cn1)N1CCCC2=C1C(=O)N(C)C2=O` (stereo not shown) [Compound 19, 2-(6-methyl-5,7-dioxo-2,3,4,5,6,7-hexahydro-1H-pyrrolo[3,4-b]pyridin-1-yl)-N-(5-phenylpyrazin-2-yl)propanamide] displayed a half-inhibitory concentration (IC50) of under 0.1 µM.

With `CN1C(=O)C2=C(C1=O)N(CC(=O)Nc1ccc(-c3ccccc3)cn1)CCC2` [Compound 5, 2-(6-methyl-5,7-dioxo-2,3,4,5,6,7-hexahydro-1H-pyrrolo[3,4-b]pyridin-1-yl)-N-(5-phenylpyridin-2-yl)acetamide], the half-maximal inhibitory concentration (IC50) is under 0.1 µM.

Consider `Cc1nc(NC(=O)CN2CCCC3=C2C(=O)N(C2CC2)C3=O)ccc1-c1cccnc1` [Compound 125, 2-(6-cyclopropyl-5,7-dioxo-2,3,4,5,6,7-hexahydro-1H-pyrrolo[3,4-b]pyridin-1-yl)-N-(2-methyl-[3,3′-bipyridin]-6-yl)acetamide], for which the IC50 was under 1 µM.

In turn, `O=C(CN1CCCC2=C1C(=O)N(C1CC1)C2=O)Nc1ccc(-c2cncnc2)cn1` [Compound 89, 2-(6-cyclopropyl-5,7-dioxo-2,3,4,5,6,7-hexahydro-1H-pyrrolo[3,4-b]pyridin-1-yl)-N-(5-(pyrimidin-5-yl)pyridin-2-yl)acetamide] yielded an IC50 of under 0.1 µM.

A word on the IC50: it is the concentration that gives 50% inhibition. Read a low IC50 as higher potency.

The values are drawn from US9981964B2 (Agency for Science, Technology and Research, priority 2013, dated 2018).
